Test results from patent publication US20240165123A1, “USE OF A COMPOUND CONTAINING A TRICYCLIC HETEROARYL GROUP” (CSPC Zhongqi Pharmaceutical Technology (Shijiazhuang) Co., …, priority 2021, published 2024).

Legend:
Format in all cases: in vivo
[1] = Effect on central nervous, respiratory and cardiovascular system of animals
Experimental: (§1) According to the general toxicology study in accordance with the NMPA “Good Laboratory Practice for Non-clinical Laboratory Studies” and FDA GLP specification (21CFR Part 58), and in line with the requirements of International Conference on Harmonization of Technical Requirements for Registration of Pharmaceuticals for Human Use (ICH) and the NMPA relevant guidelines, the toxicology study on Compound (I) was carried out to provide safety data support for the use of Compound (I) in clinical patients. The administration mode and the experimental results were as follows: […]

[2] = Toxicity test of single oral gavage administration in Beagle dogs; conditions: administered twice within 24 hours
Experimental: as §1

[3] = Toxicity test of oral gavage administration in SD rats, 28 consecutive days; conditions: for AUC: NOAEL 10 mg/kg/time BID, 28-day test; for Safety window, exposure method: NOAEL 28-day test
Experimental: as §1

NC(=O)c1cnc(Nc2ccc3c(c2)OC[C@H]2CN(S(=O)(=O)C4CC4)CCN32)nc1NC1CC1 [Compound (I), (R)-4-(cyclopropylamino)-2-((3-(cyclopropylsulfonyl)-1,2,3,4,4a,5-hexahydrobenzo[b]pyrazolo[1,2-d][1,4]oxazin-8-yl)amino)pyrimidine-5-arboxamide]
Effect on the central nervous system, respiratory system and cardiovascular system [1]: no effect | MTD [2]: 500 mg/kg/time | MTD at 24 h ([2]; dog, in vivo): 1000 mg/kg/day | Safety window, according to the exposure ([3]; SD rats, both sexes, NOAEL 28-day test vs rat effective dose exposure): 8-13 fold | Safety window, dose method ([3]; SD rats, NOAEL 28-day test vs rat effective dose): 3 fold | Safety window of human equivalent dose of NOAEL relative to the human initial dose ([3]; SD, rat, in vivo, 28 days): 16 fold | NOAEL at 28 days ([3]; SD, rat, in vivo, po): 20 mg/kg/day | AUC ([3]; female, SD, rat, in vivo, po, rats ♀): 58100 ng·h/mL | AUC ([3]; male, SD, rat, in vivo, po, rats ♂): 33900 ng·h/mL | Human equivalent dose (based on 60 kg body weight) ([3]; of NOAEL for 28-day test of rats): 242 mg | NOAEL of repeated administration for 28 days ([3]; rat, in vivo, po): 10 mg/kg/time | Safety window, exposure method ([3]; rats ♀): ♀13 fold | Safety window, exposure method ([3]; rats ♂): ♂8 fold
